Source: US6521661B1, “Cyclic peroxides as novel antifungal agents” (Harbor Branch Oceanographic Institution, Inc., priority 2000, dated 2003)
In brackets after ≈: the same amount, converted by molar mass.

Experiments:
Candida albicans = test: Antifungal microtiter broth assay; format: cell-based; conditions: 24 hours, 37° C., RPMI medium, scored visually
Experimental: Preparation of Stocks Cultures of Candida albicans. Freeze-dried C. albicans yeast stocks (ATCC 90028) were each resuspended in 1 mL sterile distilled, de-ionized water. Slants were made with five mL of MPG agar (2% (w/v) malt extract, 2% (w/v) glucose, 0.1% (w/v) bacto-peptone, 1.5% (w/v) agar) in 16×125 mm disposable glass culture tubes, inoculated with approximately […] of the above cell suspension, incubated at 25° C. for 7 days and then frozen at −80° C. To prepare glycerol stocks, a slant was thawed and the yeast cells were resuspended in 5 mL sterile distilled, de-ionized water. This 5 mL cell suspension was used to inoculate 50 mL of Sabouraud Dextrose Broth (3% (w/v) [Gibco]) in a 250 mL Ehrlenmeyer flask and was incubated 18-24 hours at 37° C., 180 rpm. Fifty milliliters of Sabouraud Dextrose Broth in a 250 mL Ehrlenmeyer flask were inoculated with 1×10^7 cells per mL of the previous culture and grown under the same conditions. After 18-24 hours, sufficient glycerol was added to this culture to make a 10% (v/v) solution (final concentration). This solution was aliquoted in 1 mL portions, frozen on dry ice, and stored at −50° C. A thawed glycerol stock was used to inoculate 50 mL Sabouraud's Dextrose Broth in a 250 mL Ehrlenmeyer flask and grown for 18-24 hours, at 37° C., 180 rpm. This culture was used to inoculate 96-well microtiter plates [Nunc] at 2×10^3 cells per 200 μL per well in liquid RPMI medium (RPMI-1640 [Gibco], 0.165 M MOPS, pH 7.0).
(§1) Each well of a 96-well microtiter plate contained 200 μL of inoculum of C. albicans or A. fumigatus and 0.1 to 125 μg/mL of marine extract in DMSO. Controls for each assay were 0.025 to 16 μg/mL of amphotericin B, and 2 μL of DMSO. Culture plates were incubated for 24 or 48 hours (for C. albicans and A. fumigatus respectively) at 37° C., 120 rpm and scored visually using a light microscope. […] Percent inhibition was estimated. The Minimum Inhibitory Concentration was determined. Samples were considered active if they inhibited 50% or more growth.

Aspergillus fumigatus = test: Antifungal microtiter broth assay; format: cell-based; conditions: 48 hours, 37° C., RPMI medium, scored visually
Experimental: Preparation of Stock Cultures of Aspergillus fumigatus. Freeze-dried A. fumigatus stocks (ATCC 16424) were resuspended in 1 mL sterile distilled, de-ionized water. Slants were made with five mL of MPG agar (2% (w/v) malt extract, 2% (w/v) glucose, 0.1% (w/v) bacto-peptone, 1.5% (w/v) agar) in 16×125 mm disposable glass culture tubes, inoculated with approximately 50 μL of the above cell suspension, incubated at 25° C. for 7 days and then frozen at −80° C. To prepare glycerol stocks, a slant was thawed and conidia were resuspended in 5 mL sterile distilled, de-ionized water. Two hundred mL of MPG agar (2% (w/v) malt extract, 2% (w/v) glucose, 0.1% (w/v) bacto-peptone, 1.5% (w/v) agar) in a 1000 mL Ehrlenmeyer flask were inoculated with this 5 mL cell suspension, incubated 5-7 days at 37° C., and then frozen at −20° C. This flask was thawed and conidia were resuspended in 20 mL of sterile distilled, de-ionized water. Sufficient glycerol was added to this 20 mL suspension to make a 10% (v/v) solution (final concentration). This solution was aliquoted in 1 mL portions, frozen on dry ice, and stored at −50° C. A thawed glycerol stock was used to inoculate 96-well microtiter plates at 2×10^4 conidia per 200 μL per well in liquid RPMI medium (RPMI-1640 [Gibco], 0.165 M MOPS, pH 7.0).
as §1

cdc25a = molecular target: T1, cdc25a (Homo sapiens, UniProt P30304); conditions: cited from earlier work
T1 sequence (P30304 1-524): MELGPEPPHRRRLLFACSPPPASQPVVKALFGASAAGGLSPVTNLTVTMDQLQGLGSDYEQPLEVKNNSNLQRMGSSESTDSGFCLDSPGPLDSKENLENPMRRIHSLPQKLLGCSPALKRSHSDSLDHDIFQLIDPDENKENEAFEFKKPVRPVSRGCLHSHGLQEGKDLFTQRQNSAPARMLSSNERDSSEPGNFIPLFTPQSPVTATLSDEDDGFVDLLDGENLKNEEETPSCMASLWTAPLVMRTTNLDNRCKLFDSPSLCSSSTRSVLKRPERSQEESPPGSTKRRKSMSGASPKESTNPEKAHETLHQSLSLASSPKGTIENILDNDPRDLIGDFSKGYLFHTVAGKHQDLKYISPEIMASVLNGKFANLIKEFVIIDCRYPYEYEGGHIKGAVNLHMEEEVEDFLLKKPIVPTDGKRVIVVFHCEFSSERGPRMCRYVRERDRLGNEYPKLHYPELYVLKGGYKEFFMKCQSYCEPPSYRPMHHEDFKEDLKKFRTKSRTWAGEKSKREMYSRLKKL

S. cerevisiae = conditions: at 100 mg/disk; cited from earlier work
P. atrovenetum = conditions: at 100 mg/disk; cited from earlier work
[1] = test system: cardiac sarcoplasmic reticulum; conditions: cited from earlier work
[2] = test system: murine leukemia (P388) cells; conditions: cited from earlier work
P388 murine leukemia = conditions: cited from earlier work

Compound	IC50 (Candida albicans) [µg/mL]	IC90 (Candida albicans) [µg/mL]	IC50 (Aspergillus fumigatus) [µg/mL]	IC90 (Aspergillus fumigatus) [µg/mL]	also measured
CC/C=C/C(CC)C/C=C/[C@@]1(CC)C[C@H](CC)[C@@H](CC(=O)O)OO1 (stereo partly shown) [Peroxyacid 6]	2 (≈ 5.91 µM)	3.9 (≈ 11.5 µM)	5.6 (≈ 16.5 µM)	5.6 (≈ 16.5 µM)	
CC/C=C/C=C/C=C/CCCCCCCC[C@]1(C)C[C@@](C)(CC(=O)O)OO1 [Peroxyacid 2]	25 (≈ 66 µM)	25 (≈ 66 µM)	25 (≈ 66 µM)	25 (≈ 66 µM)	
C[C@]1(CCCCCCCCCCc2ccccc2)C[C@](C)(CC(=O)O)OO1 [Peroxyacid 5, Epiplakinic Acid h]	0.25 (≈ 0.664 µM)	0.25 (≈ 0.664 µM)	0.5 (≈ 1.33 µM)	0.5 (≈ 1.33 µM)	Inhibition of the enzyme cdc25a (cdc25a): inhibitor
CC(/C=C/c1ccccc1)C/C=C/C(C)CC1(C)CC(C)(CC(=O)O)OO1 (stereo not shown) [Plakinic acid A]					Antifungal activity vs. S. cerevisiae (zone) (S. cerevisiae): 24 mm; Antifungal activity vs. P. atrovenetum (zone) (P. atrovenetum): 25 mm
CC(/C=C/c1ccccc1)C/C=C/C(C)C[C@]1(C)C[C@H](C)[C@@H](CC(=O)O)OO1 (stereo partly shown) [Plakinic acid B]					Antifungal activity vs. S. cerevisiae (zone) (S. cerevisiae): 20 mm; Antifungal activity vs. P. atrovenetum (zone) (P. atrovenetum): 18 mm
CC/C=C/C=C/C=C/CCCCCCCC[C@]1(C)C[C@](C)(CC(=O)O)OO1 [Peroxyacid 1]	25 (≈ 66 µM)	25 (≈ 66 µM)	25 (≈ 66 µM)	25 (≈ 66 µM)	
Plakortide G					Ca2+ uptake by the cardiac sarcoplasmic reticulum [1]: significantly enhanced
CC(CCCCCC/C=C/C=C/c1ccccc1)C[C@]1(C)C[C@](C)(CC(=O)O)OO1 (stereo partly shown) [Peroxyacid 4]	31.2 (≈ 75.3 µM)	31.2 (≈ 75.3 µM)	31.2 (≈ 75.3 µM)	31.2 (≈ 75.3 µM)	
CC/C=C/C(CC)CCC[C@@]1(CC)C[C@H](CC)[C@H](CC(=O)OC)OO1 (stereo partly shown) [Plakortide F]					Ca2+ uptake by the cardiac sarcoplasmic reticulum [1]: significantly enhanced
Plakortide H					Ca2+ uptake by the cardiac sarcoplasmic reticulum [1]: significantly enhanced
COC(=O)C[C@@]1(C)C[C@](C)(CC(C)CCCCCCc2ccccc2)OO1 (stereo partly shown) [Epiplakinic acid E methyl ester]					Cytotoxicity against P388 cells [2]: Cytotoxicity
CC(CCCCCC/C=C/C=C/c1ccccc1)C[C@]1(C)C[C@@](C)(CC(=O)O)OO1 (stereo partly shown) [Peroxyacid 3]	31.2 (≈ 75.3 µM)	62.5 (≈ 151 µM)	62.5 (≈ 151 µM)	62.5 (≈ 151 µM)	
CC/C=C/C(CC)CC(C)CC1(CC)C[C@H](CC)[C@H](CC(=O)O)OO1 (stereo partly shown)					IC50 against P388 murine leukemia (P388 murine leukemia): 500 µg/mL (≈ 1410 µM)
